Laboratory results published in ChEMBL document CHEMBL3044758, “Weed control in sunn hemp and its ability to suppress weed growth” (Crop Prot, 2011).

Experiments:
Crotalaria juncea [1] = experiment: Herbicidal tolerance in Crotalaria juncea (sunn hump) performance assessed as injury at 0.07 kg/ha post-emergence treatment measured after 2 weeks; type: ADME, organism-based; details: in vivo, other, 336 h
Digitaria sanguinalis [2] = experiment: Herbicidal activity against Digitaria sanguinalis (hairy crabgrass) in sunn hemp assessed as weed control at 0.07 kg/ha post-emergence treatment measured after 2 weeks; type: functional
Crotalaria juncea [3] = experiment: Herbicidal tolerance in Crotalaria juncea (sunn hump) performance assessed as plant hight at 0.07 kg/ha post-emergence treatment measured after 2 weeks; type: ADME, organism-based; details: in vivo, other, 336 h
Crotalaria juncea [4] = experiment: Herbicidal tolerance in Crotalaria juncea (sunn hump) performance assessed as stand count at 0.07 kg/ha post-emergence treatment measured after 2 weeks; type: ADME, organism-based; details: in vivo, other, 336 h
Eragrostis cilianensis [5] = experiment: Herbicidal activity against Eragrostis cilianensis (stinkgrass) in sunn hemp assessed as weed control at 0.07 kg/ha post-emergence treatment measured after 2 weeks; type: functional
Cyperus esculentus [6] = experiment: Herbicidal activity against Cyperus esculentus (yellow nutsedge) in sunn hemp assessed as weed control at 0.07 kg/ha post-emergence treatment measured after 2 weeks; type: functional
Crotalaria juncea [7] = experiment: Herbicidal tolerance in Crotalaria juncea (sunn hump) performance assessed as plant hight at 1.12 kg/ha post-emergence treatment measured after 2 weeks; type: ADME, organism-based; details: in vivo, other, 336 h
Cyperus esculentus [8] = experiment: Herbicidal activity against Cyperus esculentus (yellow nutsedge) in sunn hemp assessed as weed control at 1.12 kg/ha post-emergence treatment measured after 2 weeks; type: functional
Digitaria sanguinalis [9] = experiment: Herbicidal activity against Digitaria sanguinalis (hairy crabgrass) in sunn hemp assessed as weed control at 1.12 kg/ha post-emergence treatment measured after 2 weeks; type: functional
Crotalaria juncea [10] = experiment: Herbicidal tolerance in Crotalaria juncea (sunn hump) performance assessed as injury at 1.12 kg/ha post-emergence treatment measured after 2 weeks; type: ADME, organism-based; details: in vivo, other, 336 h
Eragrostis cilianensis [11] = experiment: Herbicidal activity against Eragrostis cilianensis (stinkgrass ) in sunn hemp assessed as weed control at 1.12 kg/ha post-emergence treatment measured after 2 weeks; type: functional
Crotalaria juncea [12] = experiment: Herbicidal tolerance in Crotalaria juncea (sunn hump) performance assessed as stand count at 1.12 kg/ha post-emergence treatment measured after 2 weeks; type: ADME, organism-based; details: in vivo, other, 336 h

Compound	Activity (Crotalaria juncea [1]) [%]	Activity (Digitaria sanguinalis [2]) [%]	Activity (Crotalaria juncea [3]) [cm]	Activity (Crotalaria juncea [4])	Activity (Eragrostis cilianensis [5]) [%]	Activity (Cyperus esculentus [6]) [%]	Activity (Crotalaria juncea [7]) [cm]	Activity (Cyperus esculentus [8]) [%]	Activity (Digitaria sanguinalis [9]) [%]	Activity (Crotalaria juncea [10]) [%]	Activity (Eragrostis cilianensis [11]) [%]	Activity (Crotalaria juncea [12])
Cc1cnc(C2=NC(=O)C(C)(C(C)C)N2)c(C(=O)O)c1 (configuration not stated) [IMAZAPIC]	9	76	110	8.18 /m2	93	91						
CCC(CC)Nc1c([N+](=O)[O-])cc(C)c(C)c1[N+](=O)[O-] [PENDIMETHALIN]							108	63	78	7	94	8.18 /m2
